Source: patent publication US12637415B2, “Lyophilized composition comprising (s)-isopropyl 2-((s)-2-acetamido-3-(1H-indol-3-yl)propanamido)-6-diazo-5-oxohexanoate for intravenous administration and the use thereof” (DRACEN PHARMACEUTICALS, INC., priority 2019, dated 2026)

Columns and labels:
Format in all cases: physicochemical
[1] = Study Number 2: in-use stability in PVC and polyolefin containers, 4 hour hold plus 1 hour infusion (HPLC)
Protocol: (§1) The purity and concentration of Compound 1 as measured by HPLC were determined during a 5 hour test period while the drug product was held in polyvinyl chloride (PVC) and non-PVC, non-DEHP (polyolefin) clinical containers over a range of concentrations in 500 mL containers. Admixed containers were delivered with an […] infusion set by holding the infusion bag with diluted test article for 4 hours prior to a 1 hour infusion to assess in use stability over a total of 5 hours to mimic clinical practice. The parameters of the study were: • Compound 1 dose: 6 mg and 150 mg in 500 mL • Concentration range: 0.012-0.3 mg/mL Compound 1 • Container size: 500 mL • Diluent: 0.9% normal saline, USP • Stability time points: 0 hours, 4 hours (pre-infusion), 5 hours (post-1 hour infusion) • Storage condition: room temperature (15-25° C.) • Container composition: polyvinyl chloride and non-PVC, non-DEHP (polyolefin) • Light conditions: ambient light vs amber IV bag covers to limit UV exposure • Reconstitution: 80% (v/v) ethanol for reconstitution of the lyophilate, followed by dilution into normal saline.

[2] = Study Number 3: in-use stability in polyolefin containers after 50% ethanol reconstitution, 4 hour hold plus 1 hour infusion (HPLC)
Protocol: as §1, with “a” for “polyvinyl chloride (PVC) and non-PVC,”, “120” for “150”, “0.012-0.24” for “0.012-0.3”, “composition:” for “composition: polyvinyl chloride and non-PVC,”, “conditions:” for “conditions: ambient light vs”, “50%” for “80%”

[3] = Study Number 1: in-use stability diluted in normal saline in PVC containers (HPLC purity and concentration, 24 hour); conditions: for Time stable at room temperature: 0.012-0.3 mg/mL diluted in normal saline in PVC containers
Protocol: The purity and concentration of Compound 1 as measured by HPLC were determined during a 24 hour test period while the drug product was held in its diluted state in normal saline in a polyvinyl chloride (PVC) clinical containers over a range of concentrations in 500 mL bags. The parameters of the study were: • Compound 1 dose: 6 mg and 150 mg in 500 mL • Concentration range: 0.012-0.3 mg/mL Compound 1 • Container size: 500 mL • Diluent: 0.9% normal saline, USP • Stability time points: 0, 4, 8, 24 hours • Storage condition: room temperature (15-25° C.) • Container composition: polyvinyl chloride • Light conditions: ambient light vs amber IV bag covers to limit UV exposure • Reconstitution: 80% (v/v) ethanol for reconstitution of the lyophilate, followed by dilution into normal saline.

[4] = Holding of compounded sterile filtered pre-lyophilization solutions (precipitation); conditions: for Precipitation in held pre-lyophilization solution: 24 h; for Precipitation post filtration: vials stored at 17° C., 20° C., 22° C., or 25° C. for 24 h
Protocol: Experiments were conducted to study the compounding and holding of pre-lyophilization solutions comprising Compound 1.
Vials of the compounded sterile filtered pre-lyophilization solutions were held at 17° C., 20° C., 22° C., and 25° C.

[5] = Compounding (dissolution) of pre-lyophilization solutions comprising Compound 1
Protocol: Third, Compound 1 was dissolved in the solution at 30° C. After dissolution, the solution was cooled to room temperature (20-22° C.). Experiments were conducted to study the compounding and holding of pre-lyophilization solutions comprising Compound 1.

Appearance of diluted samples ([1]; 0.012-0.3 mg/mL in normal saline, PVC and polyolefin, room temperature, through 5 hours): remained clear | Time stable at room temperature ([1]; followed by a 1 hour infusion, amber shroud, polyolefin containers, low-sorb tubing, 0.012-0.3 mg/mL in normal saline): up to 4 hours | Appearance of diluted samples ([2]; 0.012-0.24 mg/mL in normal saline, polyolefin, room temperature, through 5 hours, 50% ethanol reconstitution): remained clear | Impurity testing (HPLC) ([2]; all time points (0, 4, 5 hours), polyolefin, amber cover): no impurities at any time point | Time stable at room temperature ([2]; followed by a 1 hour infusion, amber shroud, polyolefin containers, PVC or low-sorb tubing, 0.012-0.24 mg/mL in normal saline): up to 4 hours | Appearance of diluted samples ([3]; 0.012-0.3 mg/mL in normal saline, PVC, room temperature, through 24 hours): remained clear | Time stable at room temperature ([3]; amber covered shroud protected from light): up to 24 hours | Time stable at room temperature ([3]; ambient light): up to 8 hours | Precipitation in held pre-lyophilization solution ([4]; 17° C., 10 mg/mL): remain free of precipitation | Precipitation in held pre-lyophilization solution ([4]; 17° C., 12.5 mg/mL): remain free of precipitation | Time to precipitation of pre-lyophilization solution ([4]; 17° C., 15 mg/mL): occurs within 1 h at 15 mg/mL. | Precipitation post filtration (observed or not) ([4]; Exp 4: 15 mg/mL, sterile filtered, vial held at 17° C., at 1 h): observed in vial held | Precipitation post filtration ([4]; Exp 5: 12.5 mg/mL): No precipitation | Precipitation post filtration ([4]; Exp 6: 10 mg/mL): No precipitation | Dissolution time ([5]; Exp 2: excipients and Compound 1 15 mg/mL at 25° C., single vessel): >6.5 h (estimated at | Dissolution time (estimated) ([5]; Exp 2: excipients and Compound 1 15 mg/mL at 25° C., single vessel, estimated): ~9.5 h | Dissolution of Compound 1 in ethanol and t-butanol (organic dissolution) ([5]; Exp 3: 15 mg/mL, two vessels (separate aqueous and organic), 25° C. stepped up to 35° C.): remains as solid even at | Dissolution time ([5]; Exp 3: 15 mg/mL, two vessels, after mixing aqueous and organic portions, held at the temperature of the organic phase): 1.25 h | Dissolution time ([5]; Exp 4: excipients and Compound 1 15 mg/mL at 30° C., single vessel): Dissolution time: 5 h | Dissolution time ([5]; Exp 5: excipients and Compound 1 12.5 mg/mL at 30° C., single vessel): 3.66 h | Dissolution time ([5]; Exp 6: excipients and Compound 1 10 mg/mL at 30° C., single vessel): 1.75 h
Structure (SMILES): CC(=O)N[C@@H](Cc1c[nH]c2ccccc12)C(=O)N[C@@H](CCC(=O)C=[N+]=[N-])C(=O)OC(C)C [Compound 1, (S)-isopropyl 2-((S)-2-acetamido-3-(1H-indol-3-yl)propanamido)-6-diazo-5-oxohexanoate]
Impurity testing (HPLC) ([1]; ambient light vs amber cover, 4 hours and 1 hour post infusion compared to baseline): greater impurities under ambient light with an increase in impurities observed over the course of the experiment | Impurity testing (HPLC) ([3]; ambient light vs amber cover, 0-24 hours, PVC container): greater impurities under ambient light with an increase in impurities observed over the course of the experiment
